# Where “and” joins values, the source holds several entries; their conditions need not be identical. Equal entries are not always repeated.
# Key:
# [1] = target: T1, PKR in mouse red blood cells (Mus musculus, UniProt P53657); assay: PKR activation in mouse red blood cells; format: cell-based; details: mouse RBCs
# T1 construct: endogenous in cells; host or cells: mouse RBCs isolated fresh from whole blood
# Method: The activation of wt-PKR by Compound 1 in mature human erythrocytes ex vivo was evaluated in purified RBCs purchased from Research Blood Components. Cells treated with Compound 1 for 3 hr in glucose-containing media were washed, lysed, and assayed using a Biovision Pyruvate Kinase Assay (K709-100). The assay was repeated multiple times to account for donor-to-donor variability and the relatively narrow dynamic range.
# Mouse RBCs were isolated fresh from whole blood using a Ficoll gradient and assayed with methods similar to those used in the human RBCs assays.
# [2] = tested on: 2,3-DPG and ATP levels in whole blood; assay: PK/PD studies in wild type mice, QDx7 oral gavage; format: in vivo, Balb/c mice
# Method: Two pharmacokinetic (PK)/pharmacodynamic (PD) studies were conducted in Balb/c mice that were administered Compound 1 once daily by oral gavage (formulated in 10% Cremophor EL/10% PG/80% DI water) for 7 days (QD×7) at doses of 0 (vehicle), 3.75, 7.5, 15, 30, 60 mg/kg (Study 1); 0 (vehicle), 7.5, 15, 30, 60, 120, or 240 mg/kg (Study 2). On the 7th day, whole blood was collected 24 hours after dosing and snap frozen. Samples were later thawed and analyzed by LC/MS for 2,3-DPG and ATP levels.
# [3] = tested on: 2,3-DPG, ATP, p50, deformability of sickle RBCs; assay: Phase 1, SCD patients single 700 mg dose: pharmacodynamics; format: in vivo, human
# Method: In this study, SAD/MAD cohorts are randomized (3 to 1) to receive Compound 1 or placebo (P). Compound 1 was evaluated first in 4 healthy SAD cohorts and 4 healthy MAD (14-day dosing period) cohorts. Based on the safety, and PK/PD profile from HS, Compound 1 is then evaluated in 1 SCD SAD cohort and 2 SCD MAD cohorts. Specifically, based on the safety and pharmacokinetic/pharmacodynamics (PK/PD) profile in healthy volunteer studies, Compound 1 is evaluated in patients (pts) with SCD, first in a single dose (SD or SAD) cohort and then in multiple-dose (MD or MAD) cohorts (14-day and 12-week). Safety assessments include AEs, vital signs, ECGs and laboratory parameters. PK/PD blood sampling was performed on Day 1 (SAD/MAD) and Day 14 (MAD) and up to 72 h after the last dose and at the end-of-study visit. PD parameters included 2,3-DPG, ATP, and p50 in all cohorts with additional PD studies (including oxygen scan) performed only in the SCD cohorts. PD parameters included 2,3-DPG, ATP, p50, RBC deformability with controlled deoxygenation and reoxygenation (Lorrca® oxygen scan) and varying osmolality (Lorrca® osmoscan)). To maintain study blind, pt identifiers were removed when needed.
# A potential exposure to the maximum PD response dose range to evaluate in patients with SCD was identified. Based on the safety and PK/PD profile in healthy volunteer studies, a 700 mg single dose was evaluated in patients with SCD (n=7). A single 700 mg dose of Compound 1 was selected to evaluate in patients with SCD to enable daily dosing cohorts at lower exposures.
# The effects of a single dose of Compound 1 (700 mg) versus placebo on oxygen scan, oxygen affinity (p50), and osmoscan in SCD patients were evaluated. At the Point of Sickling (POS or PoS), polymerization of de-oxy HbS can affect the deformability of the RBCs and the elongation Index starts to decrease. The EImin refers to the lowest level of RBC deformability in the Oxygenscan. The lower the EImin the lower the deformability of the RBC. […] As shown in FIG. 53 and Table 25 (Oxygen affinity curve), Compound 1 increased O2 affinity (decreased p50) in all participants treated. […] These effects were transient, returning to baseline 3 to 7 days after the single dose of Compound 1.
# The oxygen affinity of RBCs was measured in patient blood using a Hemox Analyzer (TCS Scientific Corp.), an automatic system for the recording of blood oxygen equilibrium curves and related phenomena. The Hemox Analyzer was used according to standard methods to determine the hemoglobin-oxygen dissociation curves for whole blood samples, numerically characterized by the p50, the partial pressure of oxygen at which hemoglobin is 50% saturated. […] In the case of hemoglobin, the wavelength of maximum absorbance is the measuring wavelength (560 nm), while the reference wavelength is at the isosbestic point at (570 nm). The absorbance at the isosbestic point remains unchanged during the deoxygenation process of the hemoglobin, however the measuring wavelength (560 nm) undergoes a drastic change in absorbance. This change is detected by the electronic circuitry and is plotted as the log/ratio change between the two wavelengths. The log/ratio measurement at 560 nm and 570 nm is utilized to measure the optical absorbance change during the deoxygenation of the hemoglobin. Simultaneously with the measurement of the hemoglobin absorbance, the oxygen concentration is directly measured in the sample using a Clark electrode. […]
# [4] = tested on: H295R adreno-cortical carcinoma cell line; assay: Cell viability (MTT Kit); format: cell-based
# Method: To assess potential effects on steroidogenesis, Compound 1 was screened for steroid modulation in vitro using the H295R adreno-cortical carcinoma cell line (at 200 to 0.0002 μM) and in an assay to monitor cell viability (MTT Kit). Compound 1 indicated steroid modulation potential (% over vehicle) only at 200 µM, the top concentration tested, with 100% cellular viability at concentrations ≤20 μM (90% viability at 200 μM).
# [5] = SCD patients, 24 hours after single 700-mg dose
# T1 sequence (P53657 whole entry): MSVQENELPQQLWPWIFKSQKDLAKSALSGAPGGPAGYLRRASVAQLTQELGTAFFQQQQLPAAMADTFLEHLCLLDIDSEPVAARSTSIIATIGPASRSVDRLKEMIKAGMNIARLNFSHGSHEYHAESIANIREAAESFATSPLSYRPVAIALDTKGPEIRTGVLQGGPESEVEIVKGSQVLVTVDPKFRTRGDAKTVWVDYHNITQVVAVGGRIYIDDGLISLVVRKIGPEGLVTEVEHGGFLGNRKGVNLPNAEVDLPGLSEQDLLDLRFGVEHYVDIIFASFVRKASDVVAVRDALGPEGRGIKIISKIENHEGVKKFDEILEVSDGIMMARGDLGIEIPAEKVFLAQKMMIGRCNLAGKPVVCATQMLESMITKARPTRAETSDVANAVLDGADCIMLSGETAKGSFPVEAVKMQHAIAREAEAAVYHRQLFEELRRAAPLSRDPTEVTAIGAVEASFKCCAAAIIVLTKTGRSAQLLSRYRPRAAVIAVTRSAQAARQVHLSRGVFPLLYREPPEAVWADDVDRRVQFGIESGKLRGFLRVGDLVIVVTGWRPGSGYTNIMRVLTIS
structure (smiles),measurement,setting,value
"O=C([C@H](CO)c1ccccc1)N1CC2=C(C1)CN(S(=O)(=O)c1cnc3c(c1)OCCO3)C2 (single isomer, unassigned) [Compound 1]",Max-Min (%),[1]; individual replicates 1-2,<50% and <100%
same,"Max-Min (%), mean",[1]; mean,<100%
same,"reduction of 2,3-DPG levels in blood",[2]; 120 and 240 mg/kg (≥120 mg/kg) QDx7 oral,> 30%
same,ATP increase compared to vehicle,"[2]; Study 1, 30 mg/kg QDx7 oral",21%
same,ATP increase compared to vehicle,"[2]; Study 1, 60 mg/kg QDx7 oral",79%
same,ATP increase,"[2]; Study 2, 240 mg/kg QDx7 oral (highest dose)",45%
same,maximum ATP increase compared to vehicle,"[2]; Study 2, doses up to 120 mg/kg QDx7 oral",~110%
same,tolerability,"[2]; both studies, up to 240 mg/kg QDx7, no adverse clinical signs, no body weight difference",well tolerated
same,"reduction of 2,3-DPG levels in blood","[2]; ≥15 mg/kg QDx7 oral, 24 h after dosing on day 7",> 20%
same,ATP increase,[2]; ≥60 mg/kg,> 40%
same,"decrease of 2,3-DPG blood concentrations",[3]; [5],26%
same,increase of ATP blood concentrations,[3]; [5],30%
same,Hb increase compared with placebo,"[3]; SCD, 24 h after a single dose",~0.9 g/dL
same,"POS (Oxygenscan), post-dose (24 hours)","[3]; SCD, single 700 mg, median (range), pre-dose 35.4 (27.3, 38.8)","24.0 (17.9, 31.8)"
same,"Ohyper (Osmoscan), post-dose (24 hours)","[3]; SCD, single 700 mg, median (range), pre-dose 380 (371, 399)","400 (371, 412)"
same,cellular viability,[4]; 200 μM,90%
same,cellular viability,[4]; concentrations ≤20 μM,100%

# — patent US20220378756A1, “ACTIVATING PYRUVATE KINASE R” (FORMA Therapeutics, Inc., priority 2019, published 2022)
